According to ChEMBL document CHEMBL5346973 (J Med Chem, 2023):
The source made the active and inactive calls. The rule behind the calls is not given here.

Key:
[1] = target: Neuronal acetylcholine receptor; alpha2/beta4 (Rattus norvegicus, UniProt P12389+P12392); experiment: Antagonist activity at rat alpha2beta4 nACh receptor expressed in Xenopus oocyte assessed as inhibition of acetylcholine-induced response at -70 mV holding potential by voltage-clamp based electrophysiological assay; type: cell-based
Chain of Neuronal acetylcholine receptor; alpha2/beta4 (P12389 whole entry): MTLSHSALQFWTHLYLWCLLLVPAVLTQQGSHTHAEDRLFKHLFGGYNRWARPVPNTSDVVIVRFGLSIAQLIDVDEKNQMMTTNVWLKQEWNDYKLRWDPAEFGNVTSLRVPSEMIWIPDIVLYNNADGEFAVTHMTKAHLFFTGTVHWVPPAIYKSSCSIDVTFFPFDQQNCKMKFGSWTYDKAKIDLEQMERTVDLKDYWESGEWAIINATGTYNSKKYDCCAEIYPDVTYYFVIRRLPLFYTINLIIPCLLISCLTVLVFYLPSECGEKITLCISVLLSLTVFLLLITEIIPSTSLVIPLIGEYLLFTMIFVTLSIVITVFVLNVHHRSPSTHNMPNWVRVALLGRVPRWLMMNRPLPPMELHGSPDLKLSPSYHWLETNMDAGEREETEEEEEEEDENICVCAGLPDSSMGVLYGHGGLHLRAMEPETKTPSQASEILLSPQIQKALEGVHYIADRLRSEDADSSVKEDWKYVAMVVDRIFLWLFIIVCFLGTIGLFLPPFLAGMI
Chain of Neuronal acetylcholine receptor; alpha2/beta4 (P12392 whole entry): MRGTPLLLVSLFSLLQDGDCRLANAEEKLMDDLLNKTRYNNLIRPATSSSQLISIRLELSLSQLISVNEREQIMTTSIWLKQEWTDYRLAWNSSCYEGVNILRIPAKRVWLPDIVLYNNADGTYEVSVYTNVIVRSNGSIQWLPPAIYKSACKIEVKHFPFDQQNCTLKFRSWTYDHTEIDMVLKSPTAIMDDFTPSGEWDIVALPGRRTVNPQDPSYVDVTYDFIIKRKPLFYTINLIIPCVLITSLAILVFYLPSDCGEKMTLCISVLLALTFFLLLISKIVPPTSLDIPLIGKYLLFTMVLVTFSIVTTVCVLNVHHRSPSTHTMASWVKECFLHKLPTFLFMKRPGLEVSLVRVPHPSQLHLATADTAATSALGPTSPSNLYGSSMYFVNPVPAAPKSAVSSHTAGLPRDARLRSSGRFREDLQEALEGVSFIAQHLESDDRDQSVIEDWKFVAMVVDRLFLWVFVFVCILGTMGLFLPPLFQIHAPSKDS

[2] = target: Neuronal acetylcholine receptor; alpha2/beta2 (Rattus norvegicus, UniProt P12389+P12390); experiment: Antagonist activity at rat alpha2beta2 nACh receptor expressed in Xenopus oocyte assessed as inhibition of acetylcholine-induced response at -70 mV holding potential by voltage-clamp based electrophysiological assay; type: cell-based
Chain of Neuronal acetylcholine receptor; alpha2/beta2 (P12389 whole entry): as the sequence (P12389 whole entry) above
Chain of Neuronal acetylcholine receptor; alpha2/beta2 (P12390 whole entry): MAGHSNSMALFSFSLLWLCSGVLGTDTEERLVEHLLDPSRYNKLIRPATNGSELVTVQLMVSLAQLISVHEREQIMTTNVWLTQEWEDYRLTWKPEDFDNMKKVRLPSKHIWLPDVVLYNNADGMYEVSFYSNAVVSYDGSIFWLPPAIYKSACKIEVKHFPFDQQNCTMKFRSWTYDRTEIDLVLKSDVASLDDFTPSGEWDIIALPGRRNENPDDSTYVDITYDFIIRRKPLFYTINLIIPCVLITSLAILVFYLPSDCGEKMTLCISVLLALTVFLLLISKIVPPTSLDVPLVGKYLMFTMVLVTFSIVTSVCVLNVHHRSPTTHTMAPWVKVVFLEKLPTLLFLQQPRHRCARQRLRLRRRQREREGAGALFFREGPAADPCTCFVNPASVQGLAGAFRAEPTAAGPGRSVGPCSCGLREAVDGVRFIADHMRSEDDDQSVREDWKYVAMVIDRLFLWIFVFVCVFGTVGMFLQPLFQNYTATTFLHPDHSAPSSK

[3] = target: Neuronal acetylcholine receptor subunit alpha-7 (Rattus norvegicus, UniProt Q05941); experiment: Antagonist activity at rat alpha7 nACh receptor expressed in Xenopus oocyte assessed as inhibition of acetylcholine-induced response at -70 mV holding potential by voltage-clamp based electrophysiological assay; type: cell-based
Chain of Neuronal acetylcholine receptor subunit alpha-7 (Q05941 whole entry): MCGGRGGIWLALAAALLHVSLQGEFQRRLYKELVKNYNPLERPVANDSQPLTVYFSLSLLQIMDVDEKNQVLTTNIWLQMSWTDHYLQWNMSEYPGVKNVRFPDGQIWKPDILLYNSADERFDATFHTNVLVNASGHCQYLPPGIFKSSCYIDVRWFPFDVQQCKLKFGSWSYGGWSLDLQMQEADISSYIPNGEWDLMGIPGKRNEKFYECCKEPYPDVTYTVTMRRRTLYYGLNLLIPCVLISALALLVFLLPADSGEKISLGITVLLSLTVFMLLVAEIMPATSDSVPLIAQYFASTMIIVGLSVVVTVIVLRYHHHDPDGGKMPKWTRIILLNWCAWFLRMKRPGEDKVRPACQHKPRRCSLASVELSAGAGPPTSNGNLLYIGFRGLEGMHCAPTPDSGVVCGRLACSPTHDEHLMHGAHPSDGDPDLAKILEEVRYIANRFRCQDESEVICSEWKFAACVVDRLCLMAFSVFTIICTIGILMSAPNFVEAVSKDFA

[4] = target: Nicotinic acetylcholine receptor alpha6/alpha3/beta4 (Rattus norvegicus, UniProt P04757+P12392+P43143); experiment: Antagonist activity at rat alpha6/alpha3beta4 nACh receptor expressed in Xenopus oocyte assessed as inhibition of acetylcholine-induced response at -70 mV holding potential by voltage-clamp based electrophysiological assay; type: cell-based
[5] = target: Neuronal acetylcholine receptor; alpha3/beta2 (Rattus norvegicus, UniProt P04757+P12390); experiment: Antagonist activity at rat alpha3beta2 nACh receptor expressed in Xenopus oocyte assessed as inhibition of acetylcholine-induced response at -70 mV holding potential by voltage-clamp based electrophysiological assay; type: cell-based
[6] = target: Neuronal acetylcholine receptor; alpha4/beta2 (Rattus norvegicus, UniProt P09483+P12390); experiment: Antagonist activity at rat alpha4beta2 nACh receptor expressed in Xenopus oocyte assessed as inhibition of acetylcholine-induced response at -70 mV holding potential by voltage-clamp based electrophysiological assay; type: cell-based
Chain of Neuronal acetylcholine receptor; alpha4/beta2 (P09483 whole entry): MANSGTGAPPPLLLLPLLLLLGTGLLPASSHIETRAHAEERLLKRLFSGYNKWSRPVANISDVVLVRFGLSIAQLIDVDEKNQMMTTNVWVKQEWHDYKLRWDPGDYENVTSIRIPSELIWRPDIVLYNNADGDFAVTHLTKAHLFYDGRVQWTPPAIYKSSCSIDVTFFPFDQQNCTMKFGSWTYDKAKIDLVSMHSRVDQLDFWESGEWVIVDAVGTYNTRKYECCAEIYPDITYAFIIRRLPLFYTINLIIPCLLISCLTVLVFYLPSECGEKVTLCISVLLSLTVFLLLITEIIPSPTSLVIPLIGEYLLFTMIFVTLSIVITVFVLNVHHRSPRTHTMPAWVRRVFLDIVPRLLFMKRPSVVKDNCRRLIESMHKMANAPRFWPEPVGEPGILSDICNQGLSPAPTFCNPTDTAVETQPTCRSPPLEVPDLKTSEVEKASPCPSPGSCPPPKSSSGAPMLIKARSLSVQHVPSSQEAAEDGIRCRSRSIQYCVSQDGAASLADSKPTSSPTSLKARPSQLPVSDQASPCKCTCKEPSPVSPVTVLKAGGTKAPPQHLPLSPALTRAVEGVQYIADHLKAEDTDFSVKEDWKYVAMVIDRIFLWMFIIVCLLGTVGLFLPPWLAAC
Chain of Neuronal acetylcholine receptor; alpha4/beta2 (P12390 whole entry): as the sequence (P12390 whole entry) above

[7] = target: T1, Neuronal acetylcholine receptor; alpha9/alpha10 (Homo sapiens) (UniProt Q9UGM1+Q9GZZ6); experiment: Antagonist activity at human alpha9alpha10 nACh receptor expressed in Xenopus oocyte assessed as inhibition of acetylcholine-induced response at -70 mV holding potential by measuring current response at 10 nM by voltage-clamp based electrophysiological assay; type: cell-based; settings: filed as antagonist
[8] = target: Neuronal acetylcholine receptor; alpha9/alpha10 (Homo sapiens, UniProt Q9GZZ6+Q9UGM1); experiment: Antagonist activity at human alpha9alpha10 nACh receptor expressed in Xenopus oocyte assessed as inhibition of acetylcholine-induced response at -70 mV holding potential by voltage-clamp based electrophysiological assay; type: cell-based
[9] = Stability of the compound in human serum assessed as compound remaining after 6 hr by UPLC analysis; type: ADME, cell-free
[10] = target: Nicotinic acetylcholine receptor alpha9/alpha10 (Rattus norvegicus) (UniProt P43144+Q9JLB5); experiment: Antagonist activity at rat alpha9alpha10 nACh receptor expressed in Xenopus oocyte assessed as inhibition of acetylcholine-induced response at -70 mV holding potential by measuring recovery at 10 nM after 5 mins by voltage-clamp based electrophysiological assay relative to control; type: cell-based; settings: filed as antagonist
[11] = target: Neuronal acetylcholine receptor; alpha4/beta4 (Rattus norvegicus, UniProt P09483+P12392); experiment: Antagonist activity at rat alpha4beta4 nACh receptor expressed in Xenopus oocyte assessed as inhibition of acetylcholine-induced response at -70 mV holding potential by voltage-clamp based electrophysiological assay; type: cell-based
Chain of Neuronal acetylcholine receptor; alpha4/beta4 (P09483 whole entry): as the sequence (P09483 whole entry) above
Chain of Neuronal acetylcholine receptor; alpha4/beta4 (P12392 whole entry): as the sequence (P12392 whole entry) above

[12] = target: Nicotinic acetylcholine receptor alpha9/alpha10 (Rattus norvegicus, UniProt P43144+Q9JLB5); experiment: Antagonist activity at rat alpha9alpha10 nACh receptor expressed in Xenopus oocyte assessed as inhibition of acetylcholine-induced response at -70 mV holding potential by voltage-clamp based electrophysiological assay; type: cell-based
[13] = target: Neuronal acetylcholine receptor; alpha3/beta4 (Rattus norvegicus, UniProt P04757+P12392); experiment: Antagonist activity at rat alpha3beta4 nACh receptor expressed in Xenopus oocyte assessed as inhibition of acetylcholine-induced response at -70 mV holding potential by voltage-clamp based electrophysiological assay; type: cell-based
[14] = target: T1, Neuronal acetylcholine receptor; alpha9/alpha10 (Homo sapiens); experiment: Antagonist activity at human alpha9alpha10 nACh receptor expressed in Xenopus oocyte assessed as inhibition of acetylcholine-induced response at -70 mV holding potential by measuring leftward shit in concentration response curve at 10 nM by voltage-clamp based electrophysiological assay; type: cell-based; settings: filed as antagonist

Compound: CC(C)[C@H](NC(=O)[C@@H]1CSSC[C@H](NC(=O)[C@@H](N)[C@@H](C)O)C(=O)N[C@@H](CCCNC(=N)N)C(=O)N[C@@H](CO)C(=O)N[C@@H](CO)C(=O)NCC(=O)N[C@@H](CCCNC(=N)N)C(=O)N[C@@H](Cc2ccc(O)cc2)C(=O)N[C@H]2CSSC[C@H](NC(=O)[C@H](Cc3ccc(O)cc3)NC(=O)[C@H](CCCNC(=N)N)NC(=O)[C@H](CCCNC(=N)N)NC(=O)[C@H](CCCNC(=N)N)NC(=O)[C@H](CCCNC(=N)N)NC(=O)[C@H](CC(=O)O)NC(=O)[C@H](Cc3ccc(O)cc3)NC(=O)[C@@H]3CCCN3C(=O)[C@H](CO)NC(=O)[C@H](CCCNC(=N)N)NC2=O)C(=O)N[C@@H](CCCNC(=N)N)C(=O)N[C@@H](CCCNC(=N)N)C(=O)N[C@@H](C)C(=O)N[C@@H]([C@@H](C)O)C(=O)N[C@@H](CC(=O)O)C(=O)N[C@@H](C)C(=O)N1)C(=O)O
- IC50 [1]: 3.65 µM
- IC50 [2]: 2.99 µM
- IC50 [3]: 1.36 µM
- IC50 [4]: 4.01 µM
- IC50 [5]: 1.46 µM
- IC50 [6]: 3.15 µM
- inhibition [7]: 60%
- IC50 [8]: 0.011 µM
- Stability [9]: Stable
- Activity [10]: Active
- IC50 [11]: 8.24 µM
- IC50 [12]: 0.0014 µM
- IC50 [13]: 6.03 µM
- inhibition [14]: Active
